Measured values: patent US20220233542A1, “COMPOSITIONS AND METHODS FOR PREVENTING OR TREATING HUMAN IMMUNODEFICIENCY VIRUS ASSOCIATED PULMONARY ARTERIAL HYPERTENSION” (University of Georgia Research Foundation, priority 2019, published 2022)
Values joined by “and” are separate entries in the source; they are usually repeats but may differ in a detail not shown here. Equal values may be shown once. “Also recorded” adds a separate entry of the source.

Tests used:
[1] = tested on: SIVΔB670; assay: Plasma viral load throughout SIV infection; format: in vivo, simian immunodeficiency virus (SIV)
From the text: Therefore, peripheral blood CD4^+ T cell levels and plasma viral load throughout SIV infection were examined.
Animals. 28 adult Chinese rhesus macaques (Macaca mulatta) aged 6-10 years old were obtained from national primate centers or vendors and housed in accordance with the NIH Guide for the Care and Use of Laboratory Animals in a BSL2^+ primate facility at the University of Georgia (National Research Council Committee for the Update of the Guide for the Care and Use of Laboratory Animals, Guide for the Care and Use of Laboratory Animals (8th ed.) (National Academies Press National Academy of Sciences., 2011). Prior to admission to the study, all animals were screened and found negative for simian retroviruses and preexisting cardiovascular disease. Study Design and Statin treatment. All cohorts were infected with SIVΔB670 (1:100 in PBS), tissue culture infectious dose of 50% (TCID50)=2.6×10^5), intravenously or mucosally as previously described (Tarantelli et al. (2018); Schweitzer, F. et al. (2019)). […] All procedures were approved by the University of Georgia Institutional Animal Care and Use Committee. Hemodynamic measurements through right hearth catheterization. Right heart catheterization was performed and analyzed using a Swan-Ganz balloon wedge pressure catheter advanced through the right atrium, right ventricle, and pulmonary artery as previously described (Tarantelli et al). Flow Cytometry. Peripheral blood and bronchoalveolar lavage fluid (BALF) were collected at baseline (BL), 6 months post infection (mpi) and at study termination (10-12 mpi), and processed for flow cytometry as previously described (Board, K. F. et al. Experimental Pneumocystis carinii pneumonia in simian immunodeficiency virus-infected rhesus macaques. The Journal of infectious diseases 187, 576-588 (2003) and Kling, H. M. et al. Relationship of Pneumocystis jiroveci humoral immunity to prevention of colonization and chronic obstructive pulmonary disease in a primate model of HIV infection. Infection and immunity 78, 4320-4330 (2010)). CD14^dimCD16^+ non-classical monocytes and CCR7^−CD163^−CD206^+ BALF macrophages were identified by flow cytometry and calculated as previously described by Schweitzer, F. et al., supra). All analyses were performed using FlowJo Analysis software (Tree Star, Inc., Ashland, Oreg.). Cytokine measurement in plasma and BALF. Quantitative analysis of cytokines and chemokines in the plasma and BALF was performed using the Cytokine 29-Plex Monkey Panel (Invitrogen, Carlsbad, Calif.) according to the manufacturer's instructions. BALF analytes were normalized on the assumption that plasma and BALF have equal urea concentrations as previously described, using Quanti Chrom Urea Assay Kit (BioAssay Systems, Destin, Fla.) (Schweitzer, F. et al., supra). Histopathology and quantification of right ventricular and lung periarteriolar collagen deposition. 5 μm thick FFPE sections of the right heart and lung were cut and stained with Masson's trichrome and 0.1% Pico Sirius Red counterstained with Weigert's hematoxylin, to reveal fibrillar collagen, respectively by the UGA CVM Histopoathology Laboratory (Athens, Ga.). […] To quantify right ventricular collagen deposition in Masson's trichrome stained sections, 170 mm^2 regions were analyzed using Image J software (imagej.nih.gov/ij), with the threshold color plugin set to RGB; bright blue collagen was selected, converted to a binary image, and measured to quantify the collagen area. […]

[2] = tested on: small pulmonary arteries collagen deposition; assay: Lung periarteriolar collagen deposition (Picro-Sirius Red); format: in vivo, Macaca mulatta
[3] = tested on: CD14dimCD16+ non-classical monocytes; assay: Flow cytometry of peripheral blood monocytes; format: in vivo, Macaca mulatta; details: both statin cohorts at 6 mpi compared to SIV-PAH+ controls
From the text: (§1) Among cytokine signatures associated with the SIV-PAH, MIP-1α, TNF-α, and TGF-β have been previously associated with macrophage populations that promote fibrosis. At 6 mpi, SIV-PAH^+ animals had higher numbers of peripheral blood CD14^dimCD16^+ non-classical monocytes (FIG. 14A, p=0.06) and CCR7^−CD163^−CD206^+ BALF macrophages (FIG. 14C, p=0.04) compared to SIV-PAH^− controls. Moreover, increased numbers of CD14^dimCD16^+ non-classical monocytes (FIG. 14B, left panel, p=0.04) and CD14^+ CCR7^−CD163^−CD206^+ macrophages (FIG. 14D, left panel, p=0.03) correlate with increased pulmonary pressures in SIV/Uninfected controls at 6 mpi. Given the pleiotropic effects of statin upon monocyte and macrophage skewing and cytokine secretion, it was hypothesized that statins may decrease these populations which are associated with SIV-PAH.
(§2) Animals. […] Study Design and Statin treatment. […] Hemodynamic measurements through right hearth catheterization. […] Flow Cytometry. […] Cytokine measurement in plasma and BALF. […] Whole slide images were acquired by Servicebio (Woburn, Mass.). […]

[4] = tested on: right ventricle collagen deposition; assay: Right ventricular collagen deposition (Masson's trichrome); format: in vivo, Macaca mulatta
From the text: Moreover, increases in collagen deposition within the right ventricle (FIG. 15B, P=0.004; FIG. 15C) and small pulmonary arteries (FIG. 15D, P=0.0005) correlated with increased pulmonary pressures in SIV/Uninfected controls. Given the substantial dampening of pro-fibrotic immune phenotypes that occurs with statin treatment, right ventricular and lung periarteriolar collagen deposition were examined following statin treatment.
as §2

[5] = tested on: TGF-β; assay: Cytokine measurement in BALF (Cytokine 29-Plex Monkey Panel); format: in vivo, Macaca mulatta; details: both statin-treated cohorts compared to PAH+ and PAH− SIV/Untreated controls
From the text: To determine if statin treatment could modify these inflammatory mediators associated with SIV-PAH, cytokine profiles in the statin-treated cohorts were compared.
Animals. 28 adult Chinese rhesus macaques (Macaca mulatta) aged 6-10 years old were obtained from national primate centers or vendors and housed in accordance with the NIH Guide for the Care and Use of Laboratory Animals in a BSL2^+ primate facility at the University of Georgia (National Research Council Committee for the Update of the Guide for the Care and Use of Laboratory Animals, Guide for the Care and Use of Laboratory Animals (8th ed.) (National Academies Press National Academy of Sciences., 2011). Prior to admission to the study, all animals were screened and found negative for simian retroviruses and preexisting cardiovascular disease. Study Design and Statin treatment. All cohorts were infected with SIVΔB670 (1:100 in PBS), tissue culture infectious dose of 50% (TCID50)=2.6×10^5), intravenously or mucosally as previously described (Tarantelli et al. (2018); Schweitzer, F. et al. (2019)). […] All procedures were approved by the University of Georgia Institutional Animal Care and Use Committee. […] Quantitative analysis of cytokines and chemokines in the plasma and BALF was performed using the Cytokine 29-Plex Monkey Panel (Invitrogen, Carlsbad, Calif.) according to the manufacturer's instructions. […]

[6] = tested on: SIV-infected rhesus macaques; assay: SIV-PAH model, hemodynamics by serial right heart catheterization; format: in vivo, Macaca mulatta; details: for Incidence PAH ≥ 25 mm Hg 6-12 mpi: number of animals of n = 14; for Prevalence of PAH (% PAH+): n = 14, untreated 52.2
Protocol: To determine the effect of statin treatment on PAH, SIV-infected rhesus macaques were studied. More specifically, a non-human primate (NHP) model of HIV-associated PAH that closely mimics HIV-PAH using simian immunodeficiency virus (SIV)-infected rhesus macaques (Macaca mulatta) was used. […] Moreover, the histologic and hemodynamic manifestations of SIV-PAH closely approximate those of human PAH.
Hemodynamics were measured by serial right heart catheterizations at baseline (BL), 6 months post-infection (6 mpi), and at the end of study (10-12 mpi) (FIG. 11C, 11D). In contrast to untreated controls (Untreated/SIV Group 1), 14.3% (Table 5, 2 of 14, P=0.03) of statin-treated animals (SIV/Statin Group 2) developed elevated mean pulmonary arterial pressure (mPAP) (monkey 3316 at 25.4 mm Hg and monkey 2416 at 46.3 mm Hg) at 6 mpi (FIG. 1). Of these animals, one maintained slightly elevated mPAP until the end of the study (monkey 3316, terminal mPAP=25.7). At study termination, mPAP of monkey 2416 decreased to 21.2 mm Hg.
It was further tested whether statin treatment initiated following SIV infection could modify PAH incidence or progression (FIG. 11A, SIV/Statin Group 3; Table 6). In this cohort, 1 of 14 monkeys (Table 2, 7.1%, P=0.0097) developed PAH (animal 2916; 6 mpi mPAP=45.5) at 6 mpi.
as §2

[7] = tested on: CCR7−CD163−CD206+ BALF macrophages; assay: Flow cytometry of BALF macrophages; format: in vivo, Macaca mulatta; details: Groups 2 and 3 at 6 mpi compared to both PAH+ and PAH− SIV/Untreated controls
From the text: as §1, §2

[8] = SIV/Statin Group 2, individual animals
[9] = SIV/Statin Group 3, individual animals
[10] = statin-treated cohorts compared with SIV-PAH− controls

## CC(C)c1c(C(=O)Nc2ccccc2)c(-c2ccccc2)c(-c2ccc(F)cc2)n1CC[C@@H](O)C[C@@H](O)CC(=O)O [atorvastatin]
[1]; [8]
  Peak viral load (no. of RNA copies/mL): 8.1 × 10^6 RNA copies/mL and 7.9 × 10^6 RNA copies/mL and 1.6 × 10^7 RNA copies/mL and 1.3 × 10^7 RNA copies/mL and 7.3 × 10^6 RNA copies/mL and 1.7 × 10^7 RNA copies/mL and 1.8 × 10^7 RNA copies/mL and 4.9 × 10^7 RNA copies/mL and 1.1 × 10^7 RNA copies/mL and 9.3 × 10^6 RNA copies/mL and 3.7 × 10^7 RNA copies/mL and 5.0 × 10^7 RNA copies/mL and 1.0 × 10^7 RNA copies/mL and 5.0 × 10^6 RNA copies/mL
  Viral set point (no. of RNA copies/mL): 3.0 × 10^4 RNA copies/mL and 6.1 × 10^3 RNA copies/mL and 1.8 × 10^6 RNA copies/mL and 1.7 × 10^6 RNA copies/mL (2×) and 9.9 × 10^5 RNA copies/mL and 2.7 × 10^5 RNA copies/mL and 1.3 × 10^4 RNA copies/mL and 8.8 × 10^4 RNA copies/mL and 3.5 × 10^5 RNA copies/mL and 4.6 × 10^4 RNA copies/mL and 2.9 × 10^6 RNA copies/mL and 1.4 × 10^5 RNA copies/mL and 1.2 × 10^5 RNA copies/mL
[1]; SIV/Statin Group 3 (treatment started 4 months following infection), individual animals
  Peak viral load (no. of RNA copies/mL): 2.4 × 10^7 RNA copies/mL and 1.6 × 10^7 RNA copies/mL and 1.2 × 10^7 RNA copies/mL and 4.7 × 10^7 RNA copies/mL and 4.3 × 10^7 RNA copies/mL and 2.2 × 10^7 RNA copies/mL and 1.0 × 10^6 RNA copies/mL and 8.4 × 10^5 RNA copies/mL and 8.3 × 10^6 RNA copies/mL and 7.3 × 10^6 RNA copies/mL and 9.6 × 10^6 RNA copies/mL and 8.8 × 10^6 RNA copies/mL and 2.9 × 10^7 RNA copies/mL and 5.8 × 10^6 RNA copies/mL
[1]; [9]
  Viral set point (no. of RNA copies/mL): 1.4 × 10^5 RNA copies/mL and 4.1 × 10^3 RNA copies/mL and 1.1 × 10^6 RNA copies/mL and 7.8 × 10^2 RNA copies/mL and 1.4 × 10^6 RNA copies/mL and 1.2 × 10^7 RNA copies/mL and 1.5 × 10^4 RNA copies/mL and 3.0 × 10^2 RNA copies/mL and 1.1 × 10^5 RNA copies/mL and 1.8 × 10^6 RNA copies/mL and 4.4 × 10^5 RNA copies/mL and 2.8 × 10^3 RNA copies/mL and 4.0 × 10^5 RNA copies/mL and 9.0 × 10^3 RNA copies/mL
[1]; both statin-treated cohorts, throughout SIV infection
  viral load compared to SIV/Untreated controls: did not significantly alter; also recorded: does not significantly affect
[2]; statin-treated cohorts compared to SIV-PAH+
  small pulmonary arteries collagen deposition: significantly less collagen deposition
[2]; [10]
  lung collagen deposition: considerably less collagen deposition
[3]
  number of CD14dimCD16+ non-classical monocytes: significantly lower
[4]; both statin-treated cohorts compared to SIV-PAH+
  right ventricle collagen deposition: significantly less collagen deposition
[4]; [10]
  right ventricle collagen deposition: considerably less collagen deposition
[5]
  levels of BALF TGF-β at 6 mpi: significantly lower
[6]; [8]
  PAH Status: PAH− (PAH is defined as mPAP≥25 mm Hg); also recorded: PAH+ (PAH is defined as mPAP≥25 mm Hg)
  Peak mPAP (mm Hg): 15.2 mm Hg and 46.3 mm Hg and 23.2 mm Hg (2×) and 25.7 mm Hg and 19.2 mm Hg and 17.6 mm Hg and 20.2 mm Hg and 17.4 mm Hg and 16.6 mm Hg and 17.1 mm Hg and 22.0 mm Hg and 20.6 mm Hg and 20.7 mm Hg
[6]; SIV/Statin Group 2: atorvastatin 10 mg/day orally from 1 week prior to SIV infection
  Incidence PAH ≥ 25 mm Hg 6-12 mpi: 2
[6]; SIV/Statin Group 2: atorvastatin from 1 week prior to SIV infection
  Prevalence of PAH (% PAH+): 14.3%
[6]; SIV/Statin Group 2: atorvastatin from 1 week prior to SIV infection, listed as Statin
  Prevalence of PAH (% PAH+): 14.3%
[6]; SIV/Statin Group 2, monkey 3316 and monkey 2416
  mPAP at 6 mpi of animals that developed elevated mPAP: 25.4 mm Hg and 46.3 mm Hg
[6]; SIV/Statin Group 2, monkey 3316 and monkey 2416, study termination
  terminal mPAP of animals that developed elevated mPAP: 25.7 mm Hg and 21.2 mm Hg
[6]; [9]
  PAH Status: PAH− (PAH is defined as mPAP≥25 mm Hg); also recorded: PAH+ (PAH is defined as mPAP≥25 mm Hg)
  Peak mPAP (mm Hg): 21.4 mm Hg and 16.8 mm Hg and 13.2 mm Hg and 23.6 mm Hg and 45.5 mm Hg and 22.9 mm Hg and 24.1 mm Hg and 18.9 mm Hg and 20.2 mm Hg and 19.8 mm Hg and 24.4 mm Hg and 19.9 mm Hg
[6]; SIV/Statin Group 3: atorvastatin 10 mg/day orally from 4 months following SIV infection
  Incidence PAH ≥ 25 mm Hg 6-12 mpi: 1
[6]; SIV/Statin Group 3: atorvastatin from 4 months following SIV infection
  Prevalence of PAH (% PAH+): 7.1%
[6]; SIV/Statin Group 3: atorvastatin from 4 months following SIV infection, listed as Statin
  Prevalence of PAH (% PAH+): 7.1%
[6]; SIV/Statin Group 3, animal 2916
  6 mpi mPAP of the animal that developed PAH: 45.5
[6]; treatment initiated during the early chronic disease stage
  incidence of PAH: reduced incidence of PAH compared to untreated animals
[6]; treatment of healthy macaques prior to and throughout SIV infection
  development of SIV-associated PAH: prevented the development of SIV-associated PAH
[7]
  number of CCR7−CD163−CD206+ BALF macrophages: significantly reduced
